From ChEMBL document CHEMBL5291721, “A preclinical secondary pharmacology resource illuminates target-adverse drug reaction associations of marketed drugs” (Nat Commun, 2023)

How the values were obtained:
[1] = target: T1, Prostaglandin G/H synthase 1 (Rattus norvegicus, UniProt Q63921); format: functional
T1 sequence (Q63921 whole entry): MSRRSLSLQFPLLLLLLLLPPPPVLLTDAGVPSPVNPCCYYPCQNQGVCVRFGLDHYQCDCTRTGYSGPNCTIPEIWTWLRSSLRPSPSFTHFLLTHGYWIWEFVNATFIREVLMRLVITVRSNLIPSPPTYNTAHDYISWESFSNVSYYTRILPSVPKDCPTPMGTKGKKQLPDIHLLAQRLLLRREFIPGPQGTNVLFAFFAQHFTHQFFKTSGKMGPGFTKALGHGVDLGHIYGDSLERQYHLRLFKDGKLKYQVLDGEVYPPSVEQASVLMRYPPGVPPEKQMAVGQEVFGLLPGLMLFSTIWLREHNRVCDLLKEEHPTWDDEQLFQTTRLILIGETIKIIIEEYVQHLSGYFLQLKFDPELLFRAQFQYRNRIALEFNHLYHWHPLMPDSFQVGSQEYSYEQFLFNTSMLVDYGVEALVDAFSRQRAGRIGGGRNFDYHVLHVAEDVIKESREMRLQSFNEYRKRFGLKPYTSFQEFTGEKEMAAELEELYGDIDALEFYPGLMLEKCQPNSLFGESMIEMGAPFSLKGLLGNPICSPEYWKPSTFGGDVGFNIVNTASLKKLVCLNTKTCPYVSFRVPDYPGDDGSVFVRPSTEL

Adenosine receptor A1 = target: T2, Adenosine receptor A1 (Homo sapiens, UniProt P30542)
T2 sequence (P30542 whole entry): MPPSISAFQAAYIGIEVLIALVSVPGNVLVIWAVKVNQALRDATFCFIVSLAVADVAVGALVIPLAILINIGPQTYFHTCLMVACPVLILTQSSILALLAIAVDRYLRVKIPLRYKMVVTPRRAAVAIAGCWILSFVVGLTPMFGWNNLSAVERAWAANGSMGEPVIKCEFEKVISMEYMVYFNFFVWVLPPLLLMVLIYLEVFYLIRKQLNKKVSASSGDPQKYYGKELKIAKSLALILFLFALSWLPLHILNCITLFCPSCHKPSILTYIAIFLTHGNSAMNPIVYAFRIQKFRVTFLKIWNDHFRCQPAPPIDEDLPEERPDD

Vasopressin V1a receptor = Vasopressin V1a receptor (Homo sapiens, UniProt P37288)
Vasopressin V1a receptor, sequence (P37288 whole entry): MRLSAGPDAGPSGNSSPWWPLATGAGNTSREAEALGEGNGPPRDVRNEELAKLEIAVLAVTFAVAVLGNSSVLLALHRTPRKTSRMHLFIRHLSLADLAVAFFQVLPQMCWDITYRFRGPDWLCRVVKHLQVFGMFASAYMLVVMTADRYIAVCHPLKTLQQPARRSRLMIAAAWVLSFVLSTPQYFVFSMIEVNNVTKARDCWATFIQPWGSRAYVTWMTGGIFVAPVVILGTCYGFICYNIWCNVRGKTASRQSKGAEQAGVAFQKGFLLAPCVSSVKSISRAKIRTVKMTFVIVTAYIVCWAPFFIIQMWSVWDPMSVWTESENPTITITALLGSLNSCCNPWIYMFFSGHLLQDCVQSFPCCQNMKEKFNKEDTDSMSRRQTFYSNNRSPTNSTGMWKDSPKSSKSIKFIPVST

Mu-type opioid receptor = Mu-type opioid receptor (Homo sapiens, UniProt P35372); experiment: biochemical; format: functional
Mu-type opioid receptor, sequence (P35372 whole entry): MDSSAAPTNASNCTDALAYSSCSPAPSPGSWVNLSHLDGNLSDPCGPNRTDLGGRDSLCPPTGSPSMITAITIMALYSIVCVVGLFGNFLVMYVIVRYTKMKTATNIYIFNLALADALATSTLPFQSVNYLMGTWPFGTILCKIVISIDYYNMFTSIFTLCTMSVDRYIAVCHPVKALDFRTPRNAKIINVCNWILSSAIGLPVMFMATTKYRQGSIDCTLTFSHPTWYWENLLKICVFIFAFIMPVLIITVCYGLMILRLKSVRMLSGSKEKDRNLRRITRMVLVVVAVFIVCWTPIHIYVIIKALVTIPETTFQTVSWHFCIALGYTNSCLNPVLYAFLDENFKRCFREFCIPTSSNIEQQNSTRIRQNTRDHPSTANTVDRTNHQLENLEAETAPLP

[2] = target: T3, Type-1 angiotensin II receptor (Homo sapiens, UniProt P30556)
T3 sequence (P30556 whole entry): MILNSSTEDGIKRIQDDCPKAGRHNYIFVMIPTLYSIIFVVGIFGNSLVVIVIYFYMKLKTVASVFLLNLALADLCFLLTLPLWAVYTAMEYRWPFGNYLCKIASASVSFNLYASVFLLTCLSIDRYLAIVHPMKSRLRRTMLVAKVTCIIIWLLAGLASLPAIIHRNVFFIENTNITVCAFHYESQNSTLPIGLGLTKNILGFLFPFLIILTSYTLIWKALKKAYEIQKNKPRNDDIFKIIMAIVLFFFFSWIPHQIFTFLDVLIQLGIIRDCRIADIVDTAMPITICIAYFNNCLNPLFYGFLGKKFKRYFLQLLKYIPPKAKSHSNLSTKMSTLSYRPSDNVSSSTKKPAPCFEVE

Adenosine receptor A2a = Adenosine receptor A2a (Homo sapiens, UniProt P29274)
Adenosine receptor A2a, sequence (P29274 whole entry): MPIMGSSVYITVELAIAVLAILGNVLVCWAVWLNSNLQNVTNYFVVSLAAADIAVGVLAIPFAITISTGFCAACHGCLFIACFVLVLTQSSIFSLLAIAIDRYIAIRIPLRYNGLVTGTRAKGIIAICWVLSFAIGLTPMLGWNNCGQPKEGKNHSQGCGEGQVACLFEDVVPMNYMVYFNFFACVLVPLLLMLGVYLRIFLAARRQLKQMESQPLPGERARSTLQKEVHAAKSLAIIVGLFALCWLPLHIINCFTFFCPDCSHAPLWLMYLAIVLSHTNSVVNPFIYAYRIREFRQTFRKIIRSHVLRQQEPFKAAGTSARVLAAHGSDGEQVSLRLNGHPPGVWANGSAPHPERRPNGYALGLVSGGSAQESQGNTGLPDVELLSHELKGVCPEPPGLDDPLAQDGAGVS

[3] = target: T4, Alpha-2A adrenergic receptor (Homo sapiens, UniProt P08913); format: functional, cell-based
T4 sequence (P08913 whole entry): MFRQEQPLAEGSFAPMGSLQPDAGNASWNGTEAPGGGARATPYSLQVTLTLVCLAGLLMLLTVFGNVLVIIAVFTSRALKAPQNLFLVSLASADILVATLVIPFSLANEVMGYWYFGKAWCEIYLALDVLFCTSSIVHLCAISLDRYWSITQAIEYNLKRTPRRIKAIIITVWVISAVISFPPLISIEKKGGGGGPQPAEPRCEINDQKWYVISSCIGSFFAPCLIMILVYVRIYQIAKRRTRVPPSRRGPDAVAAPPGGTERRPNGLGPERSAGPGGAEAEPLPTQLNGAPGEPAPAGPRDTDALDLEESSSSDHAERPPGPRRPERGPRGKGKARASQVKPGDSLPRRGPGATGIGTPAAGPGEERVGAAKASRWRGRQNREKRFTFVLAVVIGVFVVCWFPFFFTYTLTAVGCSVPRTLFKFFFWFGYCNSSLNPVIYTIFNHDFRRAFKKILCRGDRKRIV

Progesterone receptor = target: T5, Progesterone receptor (Homo sapiens, UniProt P06401); format: functional
T5 sequence (P06401 whole entry): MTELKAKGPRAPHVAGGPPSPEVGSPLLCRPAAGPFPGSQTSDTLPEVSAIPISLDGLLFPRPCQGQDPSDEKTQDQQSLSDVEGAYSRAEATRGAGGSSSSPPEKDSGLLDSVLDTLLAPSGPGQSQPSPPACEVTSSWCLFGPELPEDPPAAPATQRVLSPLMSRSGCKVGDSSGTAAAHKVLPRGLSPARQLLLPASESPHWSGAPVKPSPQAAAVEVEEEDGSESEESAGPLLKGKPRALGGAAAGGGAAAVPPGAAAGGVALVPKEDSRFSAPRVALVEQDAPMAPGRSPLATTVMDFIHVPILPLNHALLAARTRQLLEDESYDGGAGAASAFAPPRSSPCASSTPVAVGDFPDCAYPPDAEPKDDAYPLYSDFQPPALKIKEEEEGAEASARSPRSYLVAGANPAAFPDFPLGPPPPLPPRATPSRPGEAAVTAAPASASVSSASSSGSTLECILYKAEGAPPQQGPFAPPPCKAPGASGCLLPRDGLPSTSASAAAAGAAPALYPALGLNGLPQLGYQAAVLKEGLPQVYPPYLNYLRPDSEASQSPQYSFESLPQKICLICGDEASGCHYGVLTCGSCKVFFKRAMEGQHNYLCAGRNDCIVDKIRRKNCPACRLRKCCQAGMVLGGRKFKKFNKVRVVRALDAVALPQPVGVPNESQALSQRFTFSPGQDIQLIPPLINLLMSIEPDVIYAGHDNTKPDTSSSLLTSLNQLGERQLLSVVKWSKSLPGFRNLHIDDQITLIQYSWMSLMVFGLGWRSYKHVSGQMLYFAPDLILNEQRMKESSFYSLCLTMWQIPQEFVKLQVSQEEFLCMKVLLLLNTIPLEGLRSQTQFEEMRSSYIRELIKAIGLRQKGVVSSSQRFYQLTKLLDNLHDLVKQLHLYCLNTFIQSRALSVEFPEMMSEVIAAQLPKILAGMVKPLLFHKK

[4] = target: 5-hydroxytryptamine receptor 2B (Homo sapiens, UniProt P41595); format: functional, cell-based
5-hydroxytryptamine receptor 2B, sequence (P41595 whole entry): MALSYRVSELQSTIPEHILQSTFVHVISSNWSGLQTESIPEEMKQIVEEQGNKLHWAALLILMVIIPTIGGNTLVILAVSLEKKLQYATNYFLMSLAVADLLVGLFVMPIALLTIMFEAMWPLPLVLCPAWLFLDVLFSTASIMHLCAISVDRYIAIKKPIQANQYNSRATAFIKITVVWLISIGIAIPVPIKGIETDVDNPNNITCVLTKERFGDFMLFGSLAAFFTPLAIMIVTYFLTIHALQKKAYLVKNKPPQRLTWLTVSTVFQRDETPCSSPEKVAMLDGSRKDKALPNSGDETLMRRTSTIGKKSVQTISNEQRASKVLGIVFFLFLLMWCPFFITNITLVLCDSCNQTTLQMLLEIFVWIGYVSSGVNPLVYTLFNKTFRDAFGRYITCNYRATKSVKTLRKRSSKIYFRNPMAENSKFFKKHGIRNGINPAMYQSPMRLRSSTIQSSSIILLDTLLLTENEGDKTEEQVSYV
Note: assay procedure not described here.

Cc1ccc(-c2nc3ccc(C)cn3c2CC(=O)N(C)C)cc1 [ZOLPIDEM]
AC50 [1]: > 30 µM | AC50 (Adenosine receptor A1): > 30 µM | AC50 (Vasopressin V1a receptor): > 30 µM | AC50 (Mu-type opioid receptor): > 30 µM | AC50 [2]: > 30 µM | AC50 (Adenosine receptor A2a): > 30 µM | AC50 [3]: > 30 µM | AC50 (Progesterone receptor): > 30 µM | AC50 [4]: > 30 µM

TOCOFERSOLAN
AC50 [1]: 4 µM | AC50 (Adenosine receptor A1): > 30 µM | AC50 (Vasopressin V1a receptor): > 30 µM | AC50 (Mu-type opioid receptor): > 30 µM | AC50 [2]: > 30 µM | AC50 (Adenosine receptor A2a): > 30 µM | AC50 [3]: > 30 µM | AC50 (Progesterone receptor): > 30 µM | AC50 [4]: > 30 µM
